Tests used:
Format in all cases: functional, organism-based
[1] = system: Plasmodium falciparum; assay: Antimalarial activity after 96 hrs against azithromycin-resistant Plasmodium falciparum Dd2 by [3H]hypoxanthine uptake
[2] = system: Plasmodium falciparum; assay: Antimalarial activity after 96 hrs against Plasmodium falciparum Dd2 by [3H]hypoxanthine uptake
[3] = system: Plasmodium falciparum; assay: Antimalarial activity after 48 hrs against Plasmodium falciparum 7G8 by [3H]hypoxanthine uptake
[4] = system: Plasmodium falciparum; assay: Antimalarial activity after 96 hrs against Plasmodium falciparum GCO3 C6 mutant CRT/MDR1 by [3H]hypoxanthine uptake
[5] = system: Plasmodium falciparum; assay: Antimalarial activity after 96 hrs against Plasmodium falciparum GCO3 by [3H]hypoxanthine uptake
[6] = system: Plasmodium falciparum; assay: Antimalarial activity after 96 hrs against Plasmodium falciparum Dd2 C1 mutant CRT/MDR1 by [3H]hypoxanthine uptake
[7] = system: Plasmodium falciparum; assay: Antimalarial activity after 96 hrs against azithromycin-resistant Plasmodium falciparum 7G8 by [3H]hypoxanthine uptake
[8] = system: Plasmodium falciparum; assay: Antimalarial activity after 96 hrs against Plasmodium falciparum GCO3 SND mutant CRT/MDR1 by [3H]hypoxanthine uptake
[9] = system: Plasmodium falciparum; assay: Antimalarial activity after 96 hrs against Plasmodium falciparum 7G8 T76K1 mutant CRT/MDR1 by [3H]hypoxanthine uptake; settings: 7G8, MDR1
[10] = system: Plasmodium falciparum; assay: Antimalarial activity after 96 hrs against Plasmodium falciparum GCO3 SDD mutant CRT/MDR1 by [3H]hypoxanthine uptake
[11] = system: Plasmodium falciparum; assay: Antimalarial activity after 96 hrs against Plasmodium falciparum 7G8 C1 mutant CRT/MDR1 by [3H]hypoxanthine uptake; settings: 7G8, MDR1
[12] = system: Plasmodium falciparum; assay: Antimalarial activity after 48 hrs against Plasmodium falciparum Dd2 by [3H]hypoxanthine uptake
[13] = system: Plasmodium falciparum; assay: Antimalarial activity after 96hrs against Plasmodium falciparum GCO3 C2 mutant CRT/MDR1 by [3H]hypoxanthine uptake
[14] = system: Plasmodium falciparum; assay: Antimalarial activity after 96 hrs against Plasmodium falciparum 3BA6 by [3H]hypoxanthine uptake
[15] = system: Plasmodium falciparum; assay: Antimalarial activity after 96hrs against Plasmodium falciparum 7G8 by [3H]hypoxanthine uptake
[16] = system: Plasmodium falciparum; assay: Antimalarial activity after 96 hrs against Plasmodium falciparum 3BA6 SND mutant CRT/MDR1 by [3H]hypoxanthine uptake; settings: 3BA6, MDR1
[17] = system: Plasmodium falciparum; assay: Antimalarial activity after 96 hrs against Plasmodium falciparum 3BA6 CDY mutant CRT/MDR1 by [3H]hypoxanthine uptake; settings: 3BA6, MDR1
[18] = system: Plasmodium falciparum; assay: Antimalarial activity after 96 hrs against Plasmodium falciparum GCO3 CDY mutant CRT/MDR1 by [3H]hypoxanthine uptake
[19] = system: Plasmodium falciparum; assay: Antimalarial activity after 96 hrs against Plasmodium falciparum Dd2 T76K1 mutant CRT/MDR1 by [3H]hypoxanthine uptake
[20] = system: Plasmodium falciparum; assay: Antimalarial activity after 96 hrs against Plasmodium falciparum GCO3 C4 mutant CRT/MDR1 by [3H]hypoxanthine uptake
[21] = system: Plasmodium falciparum; assay: Antimalarial activity against Plasmodium falciparum 3BA6 SDD with CRT and MDR1 mutation after 96 hrs in [3H]hypoxanthine uptake; settings: 3BA6, MDR1
[22] = system: Plasmodium falciparum; assay: Antimalarial activity after 48 hrs against Plasmodium falciparum GCO3 by [3H]hypoxanthine uptake

Structure (SMILES) | IC50 [1] [nM] | IC50 [2] [nM] | IC50 [3] [nM] | IC50 [5] [nM] | IC50 [7] [nM] | IC50 [12] [nM] | IC50 [15] [nM] | IC50 [22] [nM] | other results
CC[C@H]1OC(=O)[C@H](C)[C@@H](O[C@H]2C[C@@](C)(OC)[C@@H](O)[C@H](C)O2)[C@H](C)[C@@H](O[C@@H]2O[C@H](C)C[C@H](N(C)C)[C@H]2O)[C@](C)(O)C[C@@H](C)CN(C)[C@H](C)[C@@H](O)[C@]1(C)O [AZITHROMYCIN] | 1940 | 103 | 15700 | 43.3 | 3970 | 3460 | 228 | 22600 | IC50 [4]: 76.7 nM; IC50 [6]: 95.7 nM; IC50 [8]: 47.8 nM; IC50 [9]: 115 nM; IC50 [10]: 63.3 nM; IC50 [11]: 142 nM; IC50 [13]: 48 nM; IC50 [14]: 180 nM; IC50 [16]: 158 nM; IC50 [17]: 194 nM; IC50 [18]: 70.2 nM; IC50 [19]: 122 nM; IC50 [20]: 66.7 nM; IC50 [21]: 155 nM
C[C@H]1c2cccc(O)c2C(=O)C2=C(O)[C@]3(O)C(=O)C(C(N)=O)=C(O)[C@@H](N(C)C)[C@@H]3[C@@H](O)[C@@H]21 [DOXYCYCLINE] | 302 | 432 | – | – | 603 | – | 1440 | – | –
CC[C@H]1OC(=O)[C@H](C)[C@@H](O[C@H]2C[C@@](C)(OC)[C@@H](O)[C@H](C)O2)[C@H](C)[C@@H](O[C@@H]2O[C@H](C)C[C@H](N(C)C)[C@H]2O)[C@](C)(O)C[C@@H](C)C(=O)[C@H](C)[C@@H](O)[C@]1(C)O [ERYTHROMYCIN] | 20300 | 9400 | – | – | 39500 | – | 34700 | – | –
CN(C)[C@@H]1C(O)=C(C(N)=O)C(=O)[C@@]2(O)C(O)=C3C(=O)c4c(O)cccc4[C@@](C)(O)[C@H]3C[C@@H]12 [TETRACYCLINE] | 324 | 397 | – | – | 365 | – | 697 | – | –
C=C(NC(=O)C(=C)NC(=O)c1csc(C2=N[C@@H]3c4csc(n4)[C@H]4NC(=O)c5csc(n5)[C@H]([C@](C)(O)[C@@H](C)O)NC(=O)[C@H]5CSC(=N5)/C(=C/C)NC(=O)[C@H]([C@@H](C)O)NC(=O)c5csc(n5)[C@]3(CC2)NC(=O)[C@H](C)NC(=O)C(=C)NC(=O)[C@H](C)NC(=O)[C@H]([C@@H](C)CC)N[C@@H]2C=Cc3c([C@H](C)O)cc(nc3[C@H]2O)C(=O)O[C@@H]4C)n1)C(N)=O [THIOSTREPTON] | 175 | 292 | 688 | 916 | 217 | 2110 | 555 | 2280 | –
Oc1cc(Cl)ccc1Oc1ccc(Cl)cc1Cl [TRICLOSAN] | – | 4190 | 774 | 1530 | – | 6260 | 424 | 2710 | –

— ChEMBL document CHEMBL1156420, “In vitro efficacy, resistance selection, and structural modeling studies implicate the malarial parasite apicoplast as the target of azithromycin” (J Biol Chem, 2007)
